Read-outs that look alike come from different tables or passages of the source.
Key:
[1] = whole body distribution, female BALB/c mice, 500 μCi/kg; type: in vivo, mouse (BALB/c)
βAR = type: binding, human
β-adrenergic receptor = assay: quantitative autoradiography of brain sections from suicides and controls ([125I]iodopindolol); type: binding, human
Experimental: Beta Receptor Autoradiography
Iodopindolol is a well characterized βAR antagonist with a very high affinity (<1 nM) and specificity (Barovsky, K. et al., supra). Receptor binding studies are performed according to techniques well known in the art (see, for example, Kuhar, M. J., supra; Rainbow, T. C. et al., 1982, 1984, supra). A preferred method is described herein, although it will be apparent to one of skill in the art that the disclosed method may be modified according to the tissue preparation and ligand used.
Slides holding tissue sections are incubated for about 70 min at approximately 25° C. with 0.15 nM ^125 I-iodopindolol (New England Nuclear, 2200 Ci/mmole) in 25 mM Tris buffer, pH 7.5, containing 150 mM NaCl. Nonspecific binding is determined in the presence of 1 μM propranolol (see Examples, below). Zinterol, a selective β2 blocker, or metoprolol, a selective β1 antagonist, are added to the incubation buffer at 0.1 μM to achieve selective labeling of the β1 and β2 receptor subtypes, respectively. The incubation is followed by three 20 min washes in the same ice cold buffer. Slides are then dipped in ice cold distilled water to remove buffer salts, dried on a 50° C. slide warmer and apposed to ^3 H-sensitive film (Amersham ^3 H-hyperfilm) for 48-96 hours. The film is coexposed to commercial iodine standards (available from Amersham, for example). Film is developed manually using standard developer and fixer such as those available from the Eastman-Kodak Company. Sections are stained with cresyl violet and structures identified from the stained sections with the assistance of atlases and neuroanatomical texts such as: Barr M. L., The Human Nervous System: An Anatomical Viewpoint. Harper and Row, New York (1974); Carpenter M. B., Human Neuroanatomy. Williams and Wilkins, Baltimore (1976); DeArmond S. J. et al., Structure of the Human Brain : A Photographic Atlas. Oxford University Press, New York (1974); Nieuwenhuys R. et al., The Human Central Nervous System, Springer-Verlag, New York (1981 ), which references are hereby incorporated by reference.
Autoradiograms are analyzed by computerized image analysis systems well-known in the art (for example, with the aid of an IBM-PC). The autoradiograms are placed on a light box and a video camera is used for image acquisition. […] Standard curves derived from the iodine standards are used to convert gray level readings into equivalents of fmol ^125 I-iodopindolol / mg tissue. Specific binding is calculated by subtracting nonspecific from total binding.
Fourteen suicide and 14 pair-matched control brains were collected over 3 years from the medical examiner's offices in New York City and Jaffa, ISRAEL. […] The results of the coroner's examination as well as the results of broad-spectrum toxicological tests performed by the forensic laboratory were made available within 8 weeks. Only drug-free and pathology-free brains were included. For each suicide brain, a control matched for sex and age group with a PMD under 48 hours was collected the same day or within a few days, so that the pairs are also matched for storage time. The brains from each pair were dissected or sectioned on the same day and receptors were labeled in the same experiment, by an experimenter blind to the identity of the samples.
For autoradiography, slices from frontal cortical and anterior basal ganglia levels were sectioned in a Bright Cryotome (a refrigerated whole-body microtome) at -15° C. Sections of 40 μm were thaw- mounted onto gelatin-coated glass slides and βARs were labeled with [^125 I]iodopindolol (Pazos et al., Brain Res. 358:324-328 (1982)); Rainbow et al., Proc. Natl. Acad. Sci. U.S.A., 81:1585-1589 (1984)). Receptors were labeled with 150 pM iodopindolol, with or without 10^-6 M propranolol to define non-specific binding. The autoradiograms were developed after 48 or 72 hours. […]

Question: With `CC(C)NCC(O)COc1cccc2[nH]cc([125I])c12` (stereo not shown) [^125 I-iodopindolol] as the molecule, how does the “brain levels relative to blood levels (mCi per gram of brain / mCi per ml blood)” value ([1]; 1 minute post-injection) read?
Answer: about 1/5

Question: And the “brain levels, injected dose” value ([1]; 1 minute post-injection)?
Answer: less than 1 % of injected dose

Question: And the urine levels ([1]; 1 minute post-injection)?
Answer: below the threshold of detection

Question: What about the “highest concentrations of radioactivity (counts/gram of tissue)” value ([1]; 1 minute post-injection, 500 μCi/kg i.v.) of the same molecule?
Answer: in the lungs, followed by heart and other organs

Question: What about the receptor occupancy ([1]; 120 min, based on Bmax of approximately 2 pmole/gram brain) of the same molecule?
Answer: less than 1%

Question: What about the “Bmax used for receptor occupancy” value ([1]; extrapolated from rat and human values) of the same molecule?
Answer: approximately 2 pmole/gram brain

Question: And the “brain levels, total injected dose” value ([1]; two hours later (120 min))?
Answer: 0.06 % of total injected dose

Question: What about the “highest activity, order of organs” value ([1]; two hours later (120 min)) of the same molecule?
Answer: highest activity was found in urine, followed by lung, heart and brain

Question: What about the specific binding (βAR; cingulate gyrus, external band, female, n=4) of the same molecule?
Answer: 1.20 ± 0.31 fmol [^125 I]iodopindolol/mg tissue

Question: And the specific binding (βAR; cingulate gyrus, external band, male, n=10)?
Answer: 0.99 ± 0.18 fmol [^125 I]iodopindolol/mg tissue

Question: And the specific binding (βAR; cingulate gyrus, internal band, female, n=4)?
Answer: 1.31 ± 0.24 fmol [^125 I]iodopindolol/mg tissue

Question: And the specific binding (βAR; cingulate gyrus, internal band, male, n=10)?
Answer: 0.87 ± 0.16 fmol [^125 I]iodopindolol/mg tissue

Question: And the specific binding (βAR; gyrus rectus, external band, female, n=3)?
Answer: 1.42 ± 0.13 fmol [^125 I]iodopindolol/mg tissue

Question: And the specific binding (βAR; gyrus rectus, external band, male, n=9)?
Answer: 0.93 ± 0.18 fmol [^125 I]iodopindolol/mg tissue

Question: What about the specific binding (βAR; gyrus rectus, internal band, female, n=3) of the same molecule?
Answer: 1.24 ± 0.23 fmol [^125 I]iodopindolol/mg tissue

Question: And the specific binding (βAR; gyrus rectus, internal band, male, n=9)?
Answer: 0.80 ± 0.13 fmol [^125 I]iodopindolol/mg tissue

Question: And the specific binding (βAR; inferior frontal gyrus, external band, female, n=5)?
Answer: 1.08 ± 0.19 fmol [^125 I]iodopindolol/mg tissue

Question: And the specific binding (βAR; inferior frontal gyrus, external band, male, n=11)?
Answer: 0.86 ± 0.13 fmol [^125 I]iodopindolol/mg tissue

Question: And the specific binding (βAR; inferior frontal gyrus, internal band, female, n=5)?
Answer: 0.99 ± 0.16 fmol [^125 I]iodopindolol/mg tissue

Question: What about the specific binding (βAR; inferior frontal gyrus, internal band, male, n=11) of the same molecule?
Answer: 0.78 ± 0.13 fmol [^125 I]iodopindolol/mg tissue

Question: What about the specific binding (βAR; medial frontal gyrus, external band, female, n=5) of the same molecule?
Answer: 1.36 ± 0.23 fmol [^125 I]iodopindolol/mg tissue

Question: What about the specific binding (βAR; medial frontal gyrus, external band, male, n=13) of the same molecule?
Answer: 0.77 ± 0.12 fmol [^125 I]iodopindolol/mg tissue

Question: What about the specific binding (βAR; medial frontal gyrus, internal band, female, n=5) of the same molecule?
Answer: 1.09 ± 0.16 fmol [^125 I]iodopindolol/mg tissue

Question: What about the specific binding (βAR; medial frontal gyrus, internal band, male, n=12) of the same molecule?
Answer: 0.71 ± 0.10 fmol [^125 I]iodopindolol/mg tissue

Question: And the specific binding (βAR; orbital gyri, external band, female, n=4)?
Answer: 1.46 ± 0.25 fmol [^125 I]iodopindolol/mg tissue

Question: What about the specific binding (βAR; orbital gyri, external band, male, n=11) of the same molecule?
Answer: 0.77 ± 0.12 fmol [^125 I]iodopindolol/mg tissue

Question: And the specific binding (βAR; orbital gyri, internal band, female, n=4)?
Answer: 1.24 ± 0.18 fmol [^125 I]iodopindolol/mg tissue

Question: And the specific binding (βAR; orbital gyri, internal band, male, n=10)?
Answer: 0.70 ± 0.10 fmol [^125 I]iodopindolol/mg tissue

Question: What about the specific binding (βAR; superior frontal gyrus, external band, female, n=6) of the same molecule?
Answer: 1.48 ± 0.25 fmol [^125 I]iodopindolol/mg tissue

Question: What about the specific binding (βAR; superior frontal gyrus, external band, male, n=16) of the same molecule?
Answer: 0.87 ± 0.09 fmol [^125 I]iodopindolol/mg tissue

Question: And the specific binding (βAR; superior frontal gyrus, internal band, female, n=6)?
Answer: 1.24 ± 0.12 fmol [^125 I]iodopindolol/mg tissue

Question: And the specific binding (βAR; superior frontal gyrus, internal band, male, n=16)?
Answer: 0.82 ± 0.07 fmol [^125 I]iodopindolol/mg tissue

Question: What about the specific binding (βAR; white matter, female, n=6) of the same molecule?
Answer: 0.78 ± 0.09 fmol [^125 I]iodopindolol/mg tissue

Question: And the specific binding (βAR; white matter, male, n=16)?
Answer: 0.46 ± 0.04 fmol [^125 I]iodopindolol/mg tissue

Question: And the nonspecific binding (β-adrenergic receptor; FIG. 2, sagittal section, normal male, in the presence of propranolol)?
Answer: low and uniform throughout the section

Question: What about the “[125I]iodopindolol bound” value (β-adrenergic receptor; caudate, control, n=5) of the same molecule?
Answer: 13.2 ± 4.0 fm/mg tissue

Question: And the “[125I]iodopindolol bound” value (β-adrenergic receptor; caudate, suicide, n=5)?
Answer: 15.4 ± 2.0 fm/mg tissue

Question: What about the “[125I]iodopindolol bound” value (β-adrenergic receptor; cingulate gyrus, control, n=8) of the same molecule?
Answer: 11.8 ± 3.3 fm/mg tissue

Question: What about the “[125I]iodopindolol bound” value (β-adrenergic receptor; cingulate gyrus, suicide, n=8, P < 0.04) of the same molecule?
Answer: 16.0 ± 2.7 fm/mg tissue

Question: What about the “[125I]iodopindolol bound” value (β-adrenergic receptor; frontalis inferior, control, n=6) of the same molecule?
Answer: 14.2 ± 4.0 fm/mg tissue

Question: What about the “[125I]iodopindolol bound” value (β-adrenergic receptor; frontalis inferior, suicide, n=6) of the same molecule?
Answer: 17.2 ± 4.1 fm/mg tissue

Question: And the “[125I]iodopindolol bound” value (β-adrenergic receptor; frontalis medius, control, n=8)?
Answer: 9.3 ± 4.0 fm/mg tissue

Question: And the “[125I]iodopindolol bound” value (β-adrenergic receptor; frontalis medius, suicide, n=8)?
Answer: 16.7 ± 3.5 fm/mg tissue

Question: And the “[125I]iodopindolol bound” value (β-adrenergic receptor; frontalis superior, control, n=9)?
Answer: 10.8 ± 2.6 fm/mg tissue

Question: What about the “[125I]iodopindolol bound” value (β-adrenergic receptor; frontalis superior, suicide, n=9, P < 0.03) of the same molecule?
Answer: 17.2 ± 2.9 fm/mg tissue

Question: What about the “[125I]iodopindolol bound” value (β-adrenergic receptor; putamen, control, n=5) of the same molecule?
Answer: 19.5 ± 1.1 fm/mg tissue

Question: And the “[125I]iodopindolol bound” value (β-adrenergic receptor; putamen, suicide, n=5)?
Answer: 17.4 ± 2.5 fm/mg tissue

Question: What about the “[125I]iodopindolol bound” value (β-adrenergic receptor; white matter (cortical), control, n=9) of the same molecule?
Answer: 5.6 ± 1.8 fm/mg tissue

Question: And the “[125I]iodopindolol bound” value (β-adrenergic receptor; white matter (cortical), suicide, n=9)?
Answer: 6.7 ± 0.7 fm/mg tissue

From patent US5304367A, “In vivo brain imaging agent and method for diagnosis of psychiatric disorders” (New York University, priority 1990, dated 1994)
